The source of these data is patent EP0533240A2, “Substituted amine derivatives of piperazinylcamphorsulfonyl oxytocin antagonists” (MERCK & CO. INC., priority 1991, dated 1993).

In general, IC50 refers to the point on the concentration scale where inhibition reaches its midpoint. Read a low IC50 as greater potency. For orientation: inhibition means the relative decrease from the control value, in per cent. Read a high inhibition as a response far below the control.

The test deals with T1, uterine OT receptors (Rattus norvegicus, UniProt P70536).
T1 construct: from tissue; host or cells: uterus of DES-treated rats, crude membrane preparation
T1 sequence (P70536 1-388): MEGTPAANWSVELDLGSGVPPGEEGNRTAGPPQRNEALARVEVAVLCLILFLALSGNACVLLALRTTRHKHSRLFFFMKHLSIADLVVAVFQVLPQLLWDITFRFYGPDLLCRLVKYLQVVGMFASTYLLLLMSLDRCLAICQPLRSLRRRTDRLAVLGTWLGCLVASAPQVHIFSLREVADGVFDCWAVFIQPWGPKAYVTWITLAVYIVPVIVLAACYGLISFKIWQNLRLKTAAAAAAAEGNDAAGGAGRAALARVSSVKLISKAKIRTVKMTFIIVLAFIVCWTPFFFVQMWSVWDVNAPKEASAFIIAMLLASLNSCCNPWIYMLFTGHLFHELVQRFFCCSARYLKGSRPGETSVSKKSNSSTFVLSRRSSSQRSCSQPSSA
Description: [3H]Oxytocin radioligand binding assay, crude uterine membrane preparation. Further details: species or system rats. The conditions noted are these: for IC50: competition with 1 nM [3H]OT, 60 minutes, 22 °C, membranes of uteri from DES-treated rats.
Description: Oxytocin (OT)([tyrosyl, 3,5-[^3H]OT; 30-60 Ci/mmol; New England Nuclear. Boston, MA) to uterine OT receptors was based on an assay*using a crude membrane preparation of uteri taken from diethylstilbestrol dipropionate (DES)-treated (0.3 mg/kg, ip; 18-24) rats. Competetion studies were conducted at equilibrium (60 minutes; 22 °C) using 1 nM[^3H]OT in the following assay buffer: 50 mM Tris-HCI, 5 mM MgCl2, and 0.1% BSA, pH 7.4. Nonspecific binding (10% of the total binding) was determined using 1µM unlabeled OT and the binding reaction was terminated by filtration through glass fiber filters using a cell harvester (model 7019, Skatron, Inc., Sterling, VA).

The molecule `Cc1ccccc1N1CCN(S(=O)(=O)CC23CCC(CC2(O)C(C)C#N)C3(C)C)CC1` (single isomer, unassigned) [Example 2, 1-((7,7-DIMETHYL-2-EXO-HYDROXY-2-ENDO-(1-CYANO)ETHYL-BICYCLO(2.2.1)HEPTAN-1-YL)-METHANESULFONYL)-4-(2-METHYL PHENYL)PIPERAZINE] registered an IC50 of 150 nM.

Take `COC(=O)CCN1CCCC1C(=O)NCC(C)C1(O)CC2CCC1(CS(=O)(=O)N1CCN(c3ccccc3C)CC1)C2(C)C` (stereo not shown) [Example 45]: the IC50 was 12 nM.

The molecule `Cc1ccccc1N1CCN(S(=O)(=O)CC23CCC(C=C2C(=O)NCCc2c[nH]cn2)C3(C)C)CC1` (stereo not shown) [Example 22, 1-((7,7-DIMETHYL-2-(4-IMIDAZOLYL)ETHYLAMINOCARBONYL-BICYCLO(2.2.1 )HEPT-2-EN-1-YL)-METHANESULFONYL)-4-(2-METHYLPHENYL)PIPERAZINE] came in with an inhibition at 1 µM (at 1,000 nM compound, 1 nM [3H]OT, rat uterine membranes) of 78%.

Take `Cc1ccccc1N1CCN(S(=O)(=O)CC23CCC(CC2(O)C(C)CNC(=O)C2CCN(CCC(=O)O)CC2)C3(C)C)CC1` (stereo not drawn) [Example 56, 1-((7,7-DIMETHYL-2-EXO-HYDROXY-2-ENDO-2-(1-(4-(1-CARBOXYETHYL)PIPERIDINYLCARBONYL)-AMINO)PROPYL-BICYCLO-(2.2.1)HEPTAN-1-YL)METHANESULFONYL)-4-(2-METHYLPHENYL) PIPERAZINE]: the IC50 came to 54 nM.
